Measured values reported in patent US4022606A, “Antimicrobial use of ω-aminocarboxylic acid amides” (Henkel & Cie G.m.b.H., priority 1973, dated 1977).
≈ marks a conversion by molar mass, not a printed value.

Assays:
Type in all cases: cell-based
[1] = system: Staphylococcus aureus; assay: Minimum inhibitory concentration, dilution test, germ 1; details: 72 h, 5 × 10^7 organisms/ml, 3 days at 37° C.
Experimental: (§1) In order to measure the antimicrobial efficacy of the above-named ω-aminocarboxylic acid amides, their inhibitory effect upon the subsequently listed bacteria and fungi, as well as upon the germs in contaminated process water was determined.
(§2) 1) Staphylococcus aureus
(§3) The minimum inhibitory concentrations of the products to be tested were determined by means of the dilution test according to the standards for the examination of chemical disinfectants which had been published in 1959 by the Deutsche Gesellschaft fur Hygiene und Mikrobiologie (German Association for Hygiene and Microbiology). The tests were carried out in test tubes which were filled with Standard-I-Broth (Merck) or with beer wort (8° Be) and diluted 1:5 with tap water. After the addition of the active substances, the volume of the nutrient solution in the test tubes was adjusted to 10 ml. Next, the test tubes were inoculated with 0.1 ml test organism suspension. In the case of bacteria, the inoculated test tubes were incubated in the incubator for 3 days at 37° C. and in the case of fungi, they incubated for 6 days at 30° C. Subsequently, the concentration of the compound added to the nutrient medium which was just able to inhibit completely the growth of the germs was determined. The value thus determined was designated as the minimum inhibitory concentration (m.i.c.). The following concentration intervals were used for the tests: 1,000 ppm, 750 ppm, 500 ppm, 250 ppm, 100 ppm, 50 ppm, 25 ppm, 10 ppm, 7.5 ppm, 5 ppm, 2.5 ppm, and 1 ppm.
(§4) The inhibitory concentrations of the individual products for the above-quoted germs which were determined in this dilution test are listed in the following Table III.

[2] = system: Escherichia coli; assay: Minimum inhibitory concentration, dilution test, germ 2; details: 72 h, 4 × 10^7 organisms/ml, 3 days at 37° C.
Experimental: as §1
(§5) 2) Escherichia coli 4 × 10^7 organisms/ml
as §3, §4

[3] = system: Pseudomonas aeruginosa; assay: Minimum inhibitory concentration, dilution test, germ 3; details: 72 h, 4 × 10^7 organism/ml, 3 days at 37° C.
Experimental: as §1
(§6) 3) Pseudomonas aeruginosa
as §3, §4

[4] = system: Candida albicans; assay: Minimum inhibitory concentration, dilution test, germ 4; details: 144 h, 2 × 10^6 organisms/ml, 6 days at 30° C.
Experimental: as §1
4) Candida albicans 2 × 10^6 organisms/ml
as §3, §4

[5] = system: Aspergillus niger; assay: Minimum inhibitory concentration, dilution test, germ 5; details: 144 h, 9 × 10^5 organisms/ml, 6 days at 30° C.
Experimental: as §1
5) Aspergillus niger 9 × 10^5 organisms/ml
as §3, §4

[6] = system: Mixture of contaminated water from 3 cooling towers; assay: Minimum inhibitory concentration, dilution test, germ 6
Experimental: as §1
6) Mixture of contaminated water
as §3, §4

[7] = system: Mixture of contaminated water from 3 scrubbers of air conditioning installations; assay: Minimum inhibitory concentration, dilution test, germ 7
Experimental: as §1
7) Mixture of contaminated water
from 3 scrubbers of air con-
ditioning installations
as §3, §4

[8] = system: Staphylococcus aureus; assay: Microbicidal effect, suspension test, germ 1; details: 18° C. to 21° C.
Experimental: (§7) The microbicidal effect of some products named above was determined by means of the suspension test. The methodology of this testing procedure has been taken from the standards for the testing of chemical disinfectants, published in 1959 by the German Association for Hygiene and Microbiology. In conformity with these standards, 0.1 ml of a test organism suspension of the following enumerated bacteria or fungi was pipetted into test tubes at 18° C. to 21° C.
as §2
(§8) The products of the invention to be tested were dissolved in tap water of 16° dH (German degrees of hardness). Then, 10 ml of the respective dilution quantity of the product to be tested were added to each test tube. The concentrations of the products according to the invention were 100 ppm, 250 ppm and 500 ppm in each case. After a duration of action amounting to 1, 2.5, 5, 10, 20, 30 and 60 minutes, a loop of material was taken from each test tube and inoculated in 10 ml of nutrient solution which contained 3% Tween and 0.3% Lecithin as de-inhibitors. The nutrient solutions inoculated with bacteria were incubated at 37° C. whereas the nutrient solutions inoculated with fungi were incubated at 30° C. After 6 days, the growth of the cultures was macroscopically evaluated.

[9] = system: Escherichia coli; assay: Microbicidal effect, suspension test, germ 2; details: 18° C. to 21° C.
Experimental: as §7, §5, §8

[10] = system: Pseudomonas aeruginosa; assay: Microbicidal effect, suspension test, germ 3; details: 18° C. to 21° C.
Experimental: as §7, §6, §8

[11] = system: mixed suspension of Scenedesmus obliquus and Chlorella vulgaris; assay: Efficacy in inhibiting growth of algae; details: 168 h; after 7 days, pH 7.2; read-out: Minimum Inhibitory Concentration, growth of algae
Experimental: The efficacy in inhibiting growth of algae was determined in cylindrical vessels under intensive aeration. Into the vessels, there were introduced 100 ml of a nutrient solution to which increasing quantities of active substances had been added as well as 4 ml of a mixed suspension of Scenedesmus obliquus and Chlorella vulgaris.
The nutrition solution has the following composition:
These compounds were dissolved in 1000 ml of distilled water. The pH value of the nutrient solution was 7.2. The tests were carried out with the following concentration intervals of the active substance: 10 ppm, 5 ppm, 2.5 ppm, 2 ppm, 1.5 ppm, 1 ppm, 0.75 ppm, 0.5 ppm, and 0.25 ppm.

[12] = system: Desulfovibrio desulfuricans; assay: Inhibition of the growth of sulfate-reducing bacteria; details: 672 h, 6× 10^5 organisms/ml, 37° C., 4 weeks, pH 7.4, read-out: Inhibitory Concentration, growth of Desulfovibrio Desulfuricans
Experimental: The minimum inhibitory concentrations were determined in 50 ml screw-top bottles. The bottles were charged with an optimum nutrient solution for the growth of sulfate-reducing bacteria of the following composition:
which compounds were dissolved in 1000 ml of distilled water. The pH value of the nutrient solution was 7.4.
After various concentrations of the products to be tested had been added, 1 ml of a pure culture of Desulfovibrio desulfuricans 6× 10^5 organisms/ml was used for inoculation, followed by incubation at 37° C. for 4 weeks. The following concentration intervals were used for the tests: 100 ppm, 50 ppm, 40 ppm, 30 ppm, 20 ppm, 10 ppm, 5 ppm, 2.5 ppm, and 1 ppm.
In this test, the minimum inhibitory concentrations listed in the following Table VI were determined for the individual products.

SMILES | MIC [1] [µg/mL] | MIC [2] [µg/mL] | MIC [3] [µg/mL] | MIC [4] [µg/mL] | MIC [5] [µg/mL] | MIC [6] [µg/mL] | MIC [7] [µg/mL] | Sterilization Time ([8]; 100 ppm in tap water) [min] | Sterilization Time ([8]; 250 ppm in tap water) [min] | Sterilization Time ([8]; 500 ppm in tap water) [min] | Sterilization Time ([9]; 100 ppm in tap water) [min] | Sterilization Time ([9]; 250 ppm in tap water) [min] | Sterilization Time ([9]; 500 ppm in tap water) [min] | Sterilization Time ([10]; 100 ppm in tap water) [min] | Sterilization Time ([10]; 250 ppm in tap water) [min] | Sterilization Time ([10]; 500 ppm in tap water) [min] | MIC [11] [µg/mL] | MIC [12] [µg/mL]
CCCCCCCCCCCCNC(=O)CN.Cl [Product A, N-glycyl-dodecylamine hydrochloride] | 50 | 100 | 500 | 50 | 100 | 25 | 25 | 10 | 5 | 5 | 20 | 10 | 10 | 60 | 20 | 10 | – | –
CCCCCCCCCCCCNC(=O)CCCCCN [Product D, 6-aminocapronic acid-dodecylamide] | 5 (≈ 16.7 µM) | 5 (≈ 16.7 µM) | 100 (≈ 335 µM) | 50 (≈ 167 µM) | 50 (≈ 167 µM) | 5 (≈ 16.7 µM) | 5 (≈ 16.7 µM) | – | – | – | – | – | – | – | – | – | – | –
CCCCCCCCCCNC(=O)CCN [Product B, 3-aminopropionic acid-decylamide] | 50 (≈ 219 µM) | 50 (≈ 219 µM) | 100 (≈ 438 µM) | 100 (≈ 438 µM) | 100 (≈ 438 µM) | 25 (≈ 109 µM) | 25 (≈ 109 µM) | 5 | 5 | 5 | 10 | 10 | 10 | 30 | 10 | 10 | 1 (≈ 4.38 µM) | 5 (≈ 21.9 µM)
CCCCCCCCCCCCCCNC(=O)CCCCCN [Product F] | 5 (≈ 15.3 µM) | 5 (≈ 15.3 µM) | 250 (≈ 766 µM) | 50 (≈ 153 µM) | 100 (≈ 306 µM) | 7.5 (≈ 23 µM) | 7.5 (≈ 23 µM) | – | – | – | – | – | – | – | – | – | – | –
CCCCCCCCCCCCNC(=O)CCCCCNC(=O)CCCCCN [Product E] | 50 (≈ 121 µM) | 50 (≈ 121 µM) | 250 (≈ 607 µM) | 250 (≈ 607 µM) | 250 (≈ 607 µM) | 25 (≈ 60.7 µM) | 25 (≈ 60.7 µM) | – | – | – | – | – | – | – | – | – | – | –
CCCCCCCCCCCCNC(=O)CCCCCN(C)C [Product C, 6-(N,N-dimethylamino)capronic acid-dodecylamide] | 25 (≈ 76.6 µM) | 25 (≈ 76.6 µM) | 1000 (≈ 3060 µM) | 100 (≈ 306 µM) | 250 (≈ 766 µM) | 10 (≈ 30.6 µM) | 10 (≈ 30.6 µM) | 5 | 2.5 | 2.5 | 10 | 5 | 5 | 30 | 10 | 5 | 0.75 (≈ 2.3 µM) | 2.5 (≈ 7.66 µM)
